Measurements reported in US20060057230A1, “Tea polyphenols bioavailability enhancement method” (priority 2004, published 2006).
“And” between values parts separate entries of the source, which are not always exact repeats. Equal values may be shown once. Read-outs that look alike come from different tables or passages of the source.

Columns and labels:
[1] = Plasma free catechin pharmacokinetics after oral Polyphenon E, fasting/fed cross-over; type: in vivo, human; settings: for EGCG AUC / EGCG Cmax: oral Polyphenon E 1200 mg dose level
Description: Study Design. […] Breakfast consisted of one or two 4-oz muffins.
Sample Collection and Processing. […] The total volume of each urine sample was measured.
Tea Polyphenol Concentration Measurements.
This assay employed a gradient of two mobile phases. […] The flow rate was maintained at 1 ml/min.
The distribution of pharmacokinetic parameter data was normalized by logarithmic transformation prior to statistical analyses. The primary analyses were to determine whether the pharmacokinetics of tea catechins are different under fasting/fed states. Pharmacokinetic parameters such as AUC, Cmax, Tmax, half-life, CL/F, Vd/F, and total amount excreted over 24 hr between the fasting and fed conditions were compared by standard cross-over statistical analyses. The pkcross routine in Stata 8.0 (StataCorp 2003) was used. […] A p<0.05 was considered statistically significant. In secondary analysis, EGCG pharmacokinetic parameters such as CL/F, Vd/F, dose normalized AUC, and dose normalized Cmax were compared among different dose levels using one-way analysis of variance followed by post-hoc t-tests corrected for multiple comparisons. For the post-hoc t-test, a p<0.0167 was considered statistically significant.

[2] = Plasma total (free and conjugated) catechin Cmax after β-glucuronidase and sulfatase treatment; settings: for form mostly present in plasma: comparing total and free catechin Cmax
Description: (§1) During the initial clinic visit, study participants completed a medical history form and underwent a brief physical examination. A fasting blood was collected and subjected to a complete blood count with differential leukocyte count and a comprehensive blood chemistry analysis. Eligible subjects were randomly assigned to one of the Polyphenon E doses (400, 800, and 1200 mg, based on EGCG content) and were required to refrain from the ingestion of tea, apples, chocolate, and their products two weeks prior to the first pharmacokinetic study day and until the end of the second pharmacokinetic study day. The night prior to the first pharmacokinetic study day, subjects fasted after midnight except for water. At approximately either 6 am or 9 am on the morning of the first pharmacokinetic study day, each subject was randomly assigned to receive Polyphenon E at the assigned dose level with or without breakfast. Breakfast consisted of one or two 4-oz muffins.
(§2) Study participants had the option of selecting from three varieties of Otis Spunkmeyer® brand muffins: cheese streusel, wild blueberry, and banana nut flavors. The muffins contain 420 to 480 calories each, with 48-60 grams of carbohydrates, 20-24 grams of fat, and 6 grams of protein. Blood samples were collected prior to and at 0.5, 1, 2, 4, 6, 8, 10, and 24 hours after Polyphenon E administration. Urine samples were collected prior to and up to 24 hours (divided into two intervals: 0-8 and 8-24 hours post-dose) after dosing. Following a one-week wash-out period, study subjects fasted overnight and were crossed-over to receive the same dose of Polyphenon E under the other fasting/fed condition.
(§3) Blood samples were collected into Vacutainer tubes containing sodium heparin. Within 30 minutes of collection, tubes were centrifuged for 10 minutes at 2000 rpm. After centrifugation, plasma was mixed with Vc-EDTA solution (0.4 M NaH2PO4 buffer containing 20% ascorbic acid and 0.1% EDTA, pH 3.6) in the volume ratio of 1:0.02 and stored at −80° C. until sample analysis. Urine specimen container was preadded with 1.38 g NaH2PO4, 1 g ascorbic acid, and 5 mg EDTA to prevent degradation of tea catechins. Urine specimen was kept cold by storing the specimen container in a cooler chest with freezer packs during each collection period. The total volume of each urine sample was measured. An aliquot of urine sample was mixed with the Vc-EDTA solution and stored at −80° C. until sample analysis.
(§4) In brief, for determination of free green tea catechins, plasma or urine samples were extracted with ethyl acetate. The ethyl acetate layer was mixed with a small aliquot of 0.1% ascorbic acid before drying by vacuum centrifugation. The dried residue was re-dissolved in 15% acetonitrile and injected onto HPLC. For determination of the total of free and glucuronic acid/sulfate conjugates of tea catechins, plasma or urine samples were mixed with an aliquot of β-glucuronidase and sulfatase in the presence of ascorbate-EDTA solution. Following pre-treatment, the samples were extracted as described above for the free catechins.
(§5) The HPLC system consisted of an ESA Model 465 refrigerated autosampler, an ESA Model 580 two-pump solvent delivery system, an ESA 5500 coulochem electrode array system (CEAS), and a Supelcosil C18 reversed-phase column (150×4.6 mm; particle size, 5 μm; Supelco Inc., Bellefonte, Pa.). The autosampler and column temperatures were maintained at 6° C. and 35° C., respectively. This assay employed a gradient of two mobile phases. Buffer A consisted of 30 mM NaH2PO4 buffer, acetonitrile, and tetrahydrofuran in the volume ratio of 98.13:1.75:0.12 (pH 3.35). Buffer B consisted of 15 mM NaH2PO4 buffer, acetonitrile, and tetrahydrofuran in the volume ratio of 41.5:58.5:12.5 (pH 3.45). The flow rate was maintained at 1 ml/min. The column was eluted with 96% buffer A and 4% buffer B from 0 to 7 min.

[3] = in vivo
Description: as §1, §2, §3, §4, §5

[4] = Total catechin recovered in urine over 24 hours after oral Polyphenon E; type: in vivo, human; settings: following Polyphenon E administration
Description: Blood samples were collected prior to and at 0.5, 1, 2, 4, 6, 8, 10, and 24 hours after Polyphenon E administration. Urine samples were collected prior to and up to 24 hours (divided into two intervals: 0-8 and 8-24 hours post-dose) after dosing.
Sample Collection and Processing. Blood samples were collected into Vacutainer tubes containing sodium heparin. Within 30 minutes of collection, tubes were centrifuged for 10 minutes at 2000 rpm. After centrifugation, plasma was mixed with Vc-EDTA solution (0.4 M NaH2PO4 buffer containing 20% ascorbic acid and 0.1% EDTA, pH 3.6) in the volume ratio of 1:0.02 and stored at −80° C. until sample analysis. Urine specimen container was preadded with 1.38 g NaH2PO4, 1 g ascorbic acid, and 5 mg EDTA to prevent degradation of tea catechins. Urine specimen was kept cold by storing the specimen container in a cooler chest with freezer packs during each collection period. The total volume of each urine sample was measured. […]
The HPLC system consisted of an ESA Model 465 refrigerated autosampler, an ESA Model 580 two-pump solvent delivery system, an ESA 5500 coulochem electrode array system (CEAS), and a Supelcosil C18 reversed-phase column (150×4.6 mm; particle size, 5 μm; Supelco Inc., Bellefonte, Pa.). […] The eluent was monitored by the CEAS with potential settings at −10, 150, 300, and 500 mV. […]

[5] = rats; cited from earlier work
[6] = mice; cited from earlier work
[7] = oral Polyphenon E (400 mg EGCG), Fasting
[8] = oral Polyphenon E (400 mg EGCG), Fed
[9] = oral Polyphenon E (800 mg EGCG), Fasting
[10] = oral Polyphenon E (800 mg EGCG), Fed
[11] = oral Polyphenon E (1200 mg EGCG), Fasting
[12] = oral Polyphenon E (1200 mg EGCG), Fed
[13] = oral Polyphenon E 200 mg (so in the source), Fasting
[14] = oral Polyphenon E 200 mg (so in the source), Fed
[15] = oral Polyphenon E 400 mg, Fasting
[16] = oral Polyphenon E 800 mg, Fasting

Structure (SMILES): Oc1cc(O)c2c(c1)O[C@H](c1ccc(O)c(O)c1)[C@H](O)C2 [EC, epicatechin]
- free catechin levels in plasma samples ([1]; after oral Polyphenon E): very low or undetectable
- Maximum plasma free catechin concentrations [1, 7]: 5.6 ± 7.8 ng/mL
- Maximum plasma free catechin concentrations [1, 8]: 1.6 ± 3.9 ng/mL
- Maximum plasma free catechin concentrations [1, 9]: 1.92 ± 3.4 ng/mL
- Maximum plasma free catechin concentrations [1, 10]: 2.8 ± 5.0 ng/mL
- Maximum plasma free catechin concentrations [1, 11]: 16.6 ± 30.0 ng/mL
- Maximum plasma free catechin concentrations [1, 12]: 10.1 ± 15.3 ng/mL
- form mostly present in plasma [2]: conjugated forms

Structure (SMILES): Oc1cc(O)c2c(c1)O[C@H](c1cc(O)c(O)c(O)c1)[C@H](O)C2 [EGC, epigallocatechin]
- form mostly present in plasma [3]: conjugated forms

Structure (SMILES): O=C(O[C@@H]1Cc2c(O)cc(O)cc2O[C@@H]1c1cc(O)c(O)c(O)c1)c1cc(O)c(O)c(O)c1 [EGCG, epigallocatechin gallate]
- AUC of free EGCG [1, 13]: 685.53 ± 394.33^2 min · μg/ml
- CL/F of free EGCG [1, 13]: 2.37 ± 1.32^2 L/min
- Cmax of free EGCG [1, 13]: 3371.6 ± 1651.2^2 ng/ml
- Tmax of free EGCG [1, 13]: 90.60 ± 28.37^3 min
- t1/2 of free EGCG [1, 13]: 228.4 ± 75.3 min
- AUC of free EGCG [1, 14]: 299.40 ± 285.86^2 min · μg/ml
- CL/F of free EGCG [1, 14]: 7.39 ± 4.86 L/min
- Cmax of free EGCG [1, 14]: 923.6 ± 755.3 ng/mL
- Tmax of free EGCG [1, 14]: 175.10 ± 74.58 min
- t1/2 of free EGCG [1, 14]: 254.9 ± 59.9^4 min
- AUC of free EGCG [1, 15]: 126.96±47.02 min · μg/ml and 126.96 ± 47.02^2 min · μg/ml
- CL/F of free EGCG [1, 15]: 3.64 ± 1.55^2 L/min
- Cmax of free EGCG [1, 15]: 798.7±573.1 ng/ml and 798.7 ± 573.1^2 ng/ml
- Tmax of free EGCG [1, 15]: 93.90 ± 58.99^3 min
- t1/2 of free EGCG [1, 15]: 170.5 ± 104.6 min
- AUC of free EGCG ([1]; oral Polyphenon E 400 mg, Fed): 36.70±24.66 min · μg/ml and 36.70 ± 24.66^1 min · μg/ml
- CL/F of free EGCG ([1]; oral Polyphenon E 400 mg, Fed): 14.53 ± 7.84 L/min
- Cmax of free EGCG ([1]; oral Polyphenon E 400 mg, Fed): 141.8 ± 89.1 ng/mL
- Tmax of free EGCG ([1]; oral Polyphenon E 400 mg, Fed): 122.90 ± 83.70 min
- t1/2 of free EGCG ([1]; oral Polyphenon E 400 mg, Fed): 145.2 ± 129.1 min
- AUC of free EGCG [1, 16]: 254.48±214.21 min · μg/ml and 254.48 ± 214.21^2 min · μg/ml
- CL/F of free EGCG [1, 16]: 4.80 ± 2.69^2 L/min
- Cmax of free EGCG [1, 16]: 1522.4±1357.8 ng/ml and 1522.4 ± 1357.8^2 ng/ml
- Tmax of free EGCG [1, 16]: 83.30 ± 31.04^3 min
- t1/2 of free EGCG [1, 16]: 156.5 ± 77.5 min
- AUC of free EGCG ([1]; oral Polyphenon E 800 mg, Fed): 90.89 ± 37.39 µg·min/mL
- CL/F of free EGCG ([1]; oral Polyphenon E 800 mg, Fed): 11.63 ± 9.25 L/min
- Cmax of free EGCG ([1]; oral Polyphenon E 800 mg, Fed): 294.0 ± 113.5 ng/mL
- Tmax of free EGCG ([1]; oral Polyphenon E 800 mg, Fed): 154.90 ± 78.31 min
- t1/2 of free EGCG ([1]; oral Polyphenon E 800 mg, Fed): 220.9 ± 209.3 min
- EGCG AUC ([1]; with food): 299.40 ± 285.86 µg·min/mL
- EGCG Cmax ([1]; with food): 923.6 ± 755.3 ng/mL
- EGCG AUC ([1]; without food): 685.53 ± 394.33 µg·min/mL
- EGCG Cmax ([1]; without food): 3371.6 ± 1651.2 ng/mL
- Maximum plasma free catechin concentrations [1, 7]: 799 ± 573 ng/mL
- Maximum plasma free catechin concentrations [1, 8]: 141.8 ± 89.1 ng/mL
- Maximum plasma free catechin concentrations [1, 9]: 1522.4 ± 1357.8^3 ng/ml
- Maximum plasma free catechin concentrations [1, 10]: 294.0 ± 113.5 ng/mL
- Maximum plasma free catechin concentrations [1, 11]: 3371.6 ± 1651.2^3 ng/ml
- Maximum plasma free catechin concentrations [1, 12]: 923.6 ± 755.3 ng/mL
- urinary total catechin levels [4]: very low or undetectable
- form mostly present in plasma [2]: free form
- Maximum plasma total catechin concentrations [2, 7]: 754.9 ± 399.9^3 ng/ml
- Maximum plasma total catechin concentrations [2, 8]: 174.4 ± 80.6 ng/mL
- Maximum plasma total catechin concentrations [2, 9]: 1622.7 ± 1501.4^3 ng/ml
- Maximum plasma total catechin concentrations [2, 10]: 360.1 ± 136.9 ng/mL
- Maximum plasma total catechin concentrations [2, 11]: 3988.4 ± 2068.2^3 ng/ml
- Maximum plasma total catechin concentrations [2, 12]: 871.9 ± 625.3 ng/mL
- oral dose available in the systemic blood [5]: less than 2%
- oral bioavailability [6]: < 13%

Structure (SMILES): O=C(O[C@@H]1Cc2c(O)cc(O)cc2O[C@@H]1c1ccc(O)c(O)c1)c1cc(O)c(O)c(O)c1 [ECG, epicatechin gallate]
- Maximum plasma free catechin concentrations [1, 7]: 87.6 ± 62 ng/mL
- Maximum plasma free catechin concentrations [1, 8]: 15.7 ± 8.8 ng/mL
- Maximum plasma free catechin concentrations [1, 9]: 174 ± 141 ng/mL
- Maximum plasma free catechin concentrations [1, 10]: 33.9 ± 11.0 ng/mL
- Maximum plasma free catechin concentrations [1, 11]: 383 ± 176 ng/mL
- Maximum plasma free catechin concentrations [1, 12]: 112.9 ± 88.2 ng/mL
- urinary total catechin levels [4]: very low or undetectable
- form mostly present in plasma [2]: free form
